Common to all, as to assay type: cell-based
Assay [1] deals with T1, human CCR6 (Homo sapiens, UniProt P51684).
T1 sequence (P51684 1-374): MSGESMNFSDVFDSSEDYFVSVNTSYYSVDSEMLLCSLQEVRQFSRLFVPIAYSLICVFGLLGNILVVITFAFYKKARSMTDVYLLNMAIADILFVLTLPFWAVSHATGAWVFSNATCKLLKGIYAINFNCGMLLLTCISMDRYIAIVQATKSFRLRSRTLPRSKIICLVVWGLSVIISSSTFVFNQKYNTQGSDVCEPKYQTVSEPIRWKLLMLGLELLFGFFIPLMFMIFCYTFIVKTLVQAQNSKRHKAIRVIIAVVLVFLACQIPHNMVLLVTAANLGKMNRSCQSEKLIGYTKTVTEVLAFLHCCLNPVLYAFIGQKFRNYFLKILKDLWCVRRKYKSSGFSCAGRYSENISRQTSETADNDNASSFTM
As to the kind of experiment: CHO-K1 CCR6 chemotaxis assay towards CCL20. The settings on record: relative -LogIC50; CHO-K1 cells overexpressing human CCR6, 100 ng/ml CCL20, Transwell, 4 h. The text has this: Cells overexpressing human CCR6 were used in the chemotaxis assay (DiscoverX, CAMP Hunter™ CHO-K1 CCR6 Gi Cell Line). Growth medium of these cells consisted of DMEM/F12, non-essential Amino acids (1×NEAA, Gibco 11140050), 10% FBS and 1× pen/strep (Gibco 15140). For the chemotaxis assay, Corning Transwell plates were used with a pore size of 8 μm (Corning 351164). Cells were harvested using trypsin and diluted to 4*10^6 cells/ml in chemotaxis medium (DMEM, 0.25% BSA, pen/strep). Compounds were four-fold serially diluted in DMSO. Further dilutions were made in chemotaxis medium. Cells were incubated with test compounds for 30 min at 37° C. prior to initiation of the assay (2*10^6 cells/ml). Final DMSO concentration in the assay was 0.2%. Wells of the Transwell plates were filled with 200 μl chemotaxis medium containing 100 ng/ml CCL20 (R&D systems 360-MP). 50 μl of the cell/compound suspension was added to the inserts of the Transwell plates (100,000 cells/insert). The Transwell plates were placed in an incubator at 37° C., 5% CO2 for 4 h. After 4 h, the number of migrated cells was quantified using CellTiter Glo (Promega). Percentage inhibition values were calculated based on the low and high signal obtained with 0.2% DMSO in chemotaxis medium without and with CCL20, respectively. The relative-LogIC50 was determined with GraphPad Prism 9 using a four-parameter dose-response model.

Assay [2] addresses T1, human CCR6. The assay is described as follows: Human CCR6-Cre reporter assay. The conditions noted are these: relative -LogIC50; transfected 293 FT cells, 6 μM Forskolin, 6 nM CCL20, luciferase readout, 5h. Further details: The second construct contained the open reading frame of human CCR6 in the pUNO1 backbone; host or cells: 293 FT cells. As for the experimental part:
293 FT cells were transfected with 2 constructs using TransIT-293 (Mirus). The first construct (pGL4.29, Promega) expressed the luciferase reporter gene luc2P in response to the binding of cAMP-induced CREB to the CRE element in its promoter. The second construct contained the open reading frame of human CCR6 in the pUNO1 backbone under the control of an enhanced CMV promoter (In VivoGen). 48h after transfection, cells were harvested and diluted to 750,000 cells/ml in culture medium (DMEM, 10% FBS, 1× pen/strep (Gibco 15140)). Compounds were 2.5-fold serially diluted in DMSO. Further dilutions were made in assay medium (DMEM, 10% FBS, 1× pen/strep, 6 μM Forskolin, 6 nM CCL20). 4 μl of the compound solution was added to a white MW384 plate, followed by 20 μl of the cell suspension. Final DMSO concentration in the assay was 0.1%. The MW384 plate was placed in an incubator at 37° C., 5% CO2 for 5h. Luciferase activity was determined by addition of 24 μl of a 2.5× diluted BriteLite luciferase solution (Perkin Elmer), followed by luminescence measurement using a VICTOR Plate reader (Perkin Elmer). […] The relative-LogIC50 was determined with GraphPad Prism 9 using a four-parameter dose-response model.
In general terms: In a reporter assay the amount or activity of a reporter protein is the signal.

Assay [3] deals with Human CD4+ T cells. As to the kind of experiment: CD4+ T cell chemotaxis assay towards CCL20. The conditions noted are these: relative -LogIC50, 150 ng/ml CCL20, Transwell, 3 h. The source says:
Human CD4+ T cells were isolated from buffy coats of healthy donors using a CD4+ T Cell Isolation Kit (Miltenyi Biotec130-096-533). Isolated T cells were stimulated overnight with anti-CD3 and anti-CD28 antibodies (Biolegend 300314/302934) in growth medium (RPMI1640, 10% heat-inactivated FBS, 1× pen/strep (Gibco 15140)). For the chemotaxis assay, Corning Transwell plates were used with a pore size of 5 μm (Corning 3388). T cells were counted and diluted to 6*10^6 cells/ml in chemotaxis medium (RPMI1640, 1% BSA, pen/strep). Compounds were four-fold serially diluted in DMSO. Further dilutions were made in chemotaxis medium. Cells were incubated with test compounds for 30 min at 37° C. prior to initiation of the assay (3*10^6 cells/ml). Final DMSO concentration in the assay was 0.2%. Wells of the Transwell plates were filled with 200 μl chemotaxis medium containing 150 ng/ml CCL20 (R&D systems 360-MP). 50 μl of the cell/compound suspension was added to the inserts of the Transwell plates (150,000 cells/insert). The Transwell plates were placed in an incubator at 37° C., 5% CO2 for 3 h. After 3 h, the number of migrated cells was quantified using CellTiter Glo (Promega). Percentage inhibition values were calculated based on the low and high signal obtained with 0.2% DMSO in chemotaxis medium without and with CCL20, respectively. The relative −LogIC50 was determined with GraphPad Prism 9 using a four-parameter dose-response model.

SMILES strings stand for the structures.

Consider `CNC(=O)c1ccc(-c2ccc(S(=O)(=O)N3CCC(Nc4ccc(C5(C(F)(F)F)CC5)cc4)CC3)cc2)cc1` [Example 5, N-methyl-4′-{[4-({4-[1-(trifluoromethyl)cyclopropyl]phenyl}Amino)piperidin-1-yl]sulfonyl}-[1,1′-biphenyl]-4-carboxamide], for which the half-inhibitory concentration (IC50) in assay [1] and in assay [2] was 158 nM throughout.

For `N#Cc1c[nH]c2ccc(-c3ccc(S(=O)(=O)[C@H]4CC[C@H](Nc5ccc(C6COC6)cc5)CC4)cc3)cc12` [Example 19, 5-(4-{[trans-4-{[4-(oxetan-3-yl)phenyl]Amino}cyclohexyl]sulfonyl}phenyl)-1H-indole-3-carbonitrile], the IC50 (in general, the concentration that inhibits the measured activity by half) in assay [1] was 251 nM; in assay [2], 63.1 nM.

For the compound `NC(=O)c1cc(-c2ccc(S(=O)(=O)N3CCC(Nc4ccc(C5(C(F)(F)F)CC5)cn4)CC3)cc2)ccn1` [Example 45, 4-(4-{[4-({5-[1-(trifluoromethyl)cyclopropyl]pyridin-2-yl}amino)piperidin-1-yl]sulfonyl}phenyl)pyridine-2-carboxamide], the IC50 in assay [3] is 7.94 nM; in assay [1], 20 nM; in assay [2], 31.6 nM.

On to `NC(=O)c1ccc(-c2ccc(S(=O)(=O)N3CCC(Nc4ccc(C5(C(F)(F)F)CC5)cc4)CC3)cc2)cc1` [Example 7, 4′-{[4-({4-[1-(trifluoromethyl)cyclopropyl]phenyl}Amino)piperidin-1-yl]sulfonyl}-[1,1′-biphenyl]-4-carboxamide], for which the IC50 was 126 nM in assay [1] and 200 nM in assay [2].

For the compound `CNC(=O)c1ccc(-c2ccc(S(=O)(=O)N3CCC(Nc4ccc(C5(C(F)(F)F)CC5)cc4)CC3)cc2)cn1` [Example 6, N-methyl-5-(4-{[4-({4-[1-(trifluoromethyl)cyclopropyl]phenyl}Amino)piperidin-1-yl]sulfonyl}phenyl)pyridine-2-carboxamide], the IC50 in assay [1] and in assay [2] was 126 nM each time.

As for `O=S(=O)(c1ccc(-c2ccc3nccn3c2)cc1)[C@H]1CC[C@H](Nc2ccc(C3(C(F)(F)F)CC3)cc2)CC1` [Example 17, N-[trans-4-(4-{imidazo[1,2-a]pyridin-6-yl}benzenesulfonyl)cyclohexyl]-4-[1-(trifluoromethyl)cyclopropyl]aniline], the IC50 was 39.8 nM in assay [1] and 100 nM in assay [2].

Take `CNC(=O)c1cccc(-c2ccc(S(=O)(=O)N3CCC(Nc4ccc(C5(C(F)(F)F)CC5)cc4)CC3)cc2)c1` [Example 4, N-methyl-4′-{[4-({4-[1-(trifluoromethyl)cyclopropyl]phenyl}Amino)piperidin-1-yl]sulfonyl}-[1,1′-biphenyl]-3-carboxamide]: the IC50 in assay [1] was 25.1 nM; in assay [2] it was 79.4 nM.

Turning to `CC(C)c1nnc2ccc(-c3ccc(S(=O)(=O)N4CCC(Nc5ccc(C6(C(F)(F)F)CC6)cc5)CC4)cc3)cn12` [Example 40, 1-{4-[3-(propan-2-yl)-[1,2,4]triazolo[4,3-a]pyridin-6-yl]benzenesulfonyl}-N-{4-[1-(trifluoromethyl)cyclopropyl]phenyl}piperidin-4-amine], the values for the IC50 in assay [3], in assay [1] and in assay [2] were 0.631 nM, 15.8 nM and 50.1 nM, respectively.

`N#Cc1c[nH]c2ccc(-c3ccc(S(=O)(=O)N4CCC(Nc5ccc(C6CC6)cc5)CC4)cc3)cc12` [Example 12, 5-[4-({4-[(4-cyclopropylphenyl)Amino]piperidin-1-yl}sulfonyl)phenyl]-1H-indole-3-carbonitrile]: the IC50 in assay [1] and in assay [2] was 251 nM in each case.

`O=S(=O)(c1ccc(-c2ccc3nnc(C(F)F)n3c2)cc1)N1CCC(Nc2ccc(C3(C(F)(F)F)CC3)cn2)CC1` [Example 44, N-(1-{4-[3-(difluoromethyl)-[1,2,4]triazolo[4,3-a]pyridin-6-yl]benzenesulfonyl}piperidin-4-yl)-5-[1-(trifluoromethyl)cyclopropyl]pyridin-2-amine]: the values for the IC50 in assay [3], in assay [1] and in assay [2] were 6.31 nM, 6.31 nM and 50.1 nM, respectively.

For `Cc1cc(-c2ccc(S(=O)(=O)N3CCC(Nc4ccc(C5(C(F)(F)F)CC5)cn4)CC3)cc2)cn2c(C(C)C)nnc12` [Example 46, N-(1-{4-[8-methyl-3-(propan-2-yl)-[1,2,4]triazolo[4,3-a]pyridin-6-yl]benzenesulfonyl}piperidin-4-yl)-5-[1-(trifluoromethyl)cyclopropyl]pyridin-2-amine], the values for the IC50 in assay [3], in assay [1] and in assay [2] were 2 nM, 15.8 nM and 63.1 nM, respectively.

Values taken from patent publication US20260034125A1, “N-PHENYL-1-(PHENYLSULFONYL)PIPERIDIN-4-AMINE DERIVATIVES AS CCR6 INHIBITORS” (priority 2023, published 2026).
